Reference: paper PMC12029992, “Beyond-Rule-of-Five Compounds Are Not Different: In Vitro–In Vivo Extrapolation of Female CD-1 Mouse Clearance Based on Merck Healthcare KGaA Compound Set” (Pharmaceuticals, 2025)

Tests used:
[1] = tested on: female CD-1 mouse; experiment: IVIVE of mouse clearance from microsomes (well-stirred model, regression correction); conditions: for Fold obs. / pred. (mic.) CL,b,u - Kilford / in vitro (mic.) pred. CLint,b - Kilford / in vitro (mic.) pred. CLint,b,u - Kilford: Kilford fu,mic
Excerpt: Compounds with phase II metabolism were removed from the microsome set (N = 25). […] The following regression equations were derived for microsomes and hepatocytes, respectively: log predicted CLint = 0.8 * log scaled CLint + 0.6 and log predicted CLint = 0.6 * log scaled CLint + 0.8, with CLint expressed in mL/min/kg.
According to Sohlenius-Sternbeck et al., the following equations were used for IVIVE: scaled CLint,b=in vitro CLint∗microsomes/hepatocytes/gram of liver∗liver weight/body weight∗fu,p/fu,inc∗Rb
The physiological scaling factors, taken from Simcyp^TM version 13/1 (Certara), were 48 mg of microsomal protein per gram of liver (MPPGL), 101.7 × 10^6 hepatocytes per gram of liver (HPGL), a liver weight of 1.46 g, and a body weight of 0.025 kg. For microsomes and hepatocytes, fu,mic and fu,hep, were used as the unbound fraction in the incubation (fu,inc), respectively. predicted CLint,b=10^(log scaled CLint∗slope+intercept)
For microsomes, a slope of 0.8 and an intercept of 0.6 were used, and for hepatocytes, a slope of 0.6 and an intercept of 0.8, according to the regression equations derived above. predicted CL,b=pred. CLint,b∗QH/pred. Clint,b+QH
CLp/Rb observed CLint,b=QH∗obs. CL,b/QH−obs. CL,b
All unbound clearance terms were calculated by dividing the respective clearance by fu,p. predicted/observed CL,b,u=pred./obs. CL,b/fu,p
The above-described approach was applied for the IVIVE of clearance of the data set analyzed in this study. Additionally, in order to evaluate the impact of the Kilford calculations as a surrogate for the experimentally determined free fraction in the in vitro systems, clearance was extrapolated using the Kilford equations [16] using the same regression coefficients.

[2] = Unbound fraction in the microsome incubation (fu,mic) by rapid equilibrium dialysis; type: in vitro ADME, human; conditions: for fu,mic: experimental unbound fraction in microsome incubation
Description: (§1) The free fraction in mouse plasma, in the microsome incubation, and in the hepatocyte incubation was determined using rapid equilibrium dialysis (RED) in Teflon-coated 96-well RED devices. Test compounds were added as DMSO stocks to the donor matrix at 0.5 µM (final DMSO concentration of 0.5%) and dialyzed against phosphate buffer (70 mM, pH 7.4) in the receiver compartment for 4 h at 37 °C.
(§2) The donor matrices differed for the various unbound fractions. […] Mouse serum was dialyzed overnight to exchange the carbonate with a phosphate buffer and was then used as a donor matrix in the experiment (50% serum in 70 mM phosphate buffer, pH 7.4). For fu,mic, human liver microsomes were used as a surrogate for mouse microsomes as a donor matrix in the experiment (0.8 mg protein/mL in 70 mM phosphate buffer, pH 7.4). For fu,hep, mouse hepatocytes were inactivated by incubating overnight at room temperature and then used as a donor matrix in the experiment (0.2 million cells/mL in 70 mM phosphate buffer, pH 7.4).
(§3) Samples were taken from both compartments after 4 h of incubation and analyzed via UHPLC-MS/MS. The unbound fraction, fu, was calculated as follows: fu=creceiver/cdonor
(§4) The fu values were interconverted from one matrix concentration to another using the following formula: fu2=fu1/M2/M1−fu1·M2/M1−1 where fu2 at matrix concentration M2 can be calculated from the fu1 value at matrix concentration M1.
(§5) The recovery was calculated to check the mass balance after the experiment by adding the total compound levels in both the donor and receiver compartments.

[3] = Determination of CLint in mouse hepatocytes (hepatocyte stability); type: in vitro ADME; conditions: female CD-1 mouse hepatocytes
Description: Hepatocyte stability was assessed, as described previously, on a liquid handling platform (Hamilton Microlab Vantage, Bonaduz, Switzerland) using cryopreserved pooled female CD-1 mouse hepatocytes in suspension. Viability was determined in a Neubauer chamber by trypan blue staining and was always above 70%. Compounds (1 µM final) were incubated with hepatocytes at a cell density of 0.2 × 10^6 cells/mL in Krebs–Henseleit buffer (pH 7.4). […] Incubations were carried out in duplicate at 37 °C under an atmosphere of 5% CO2 and 95% humidity. Aliquots were taken at time points of 0, 10, 20, 40, 60, and 90 min and quenched with a two-fold volume of an ACN solution containing 1.5 µM of an internal standard. The supernatants were further diluted to a ratio of 1:3 (v/v) with supernatants from other compound incubations for bioanalytical cocktailing designed to avoid analytical interference. The samples were analyzed by UHPLC-MS/MS (for details, see the Supplementary Materials).
For quantitation with the Analyst software (version 1.7.2), MS peak area ratios of the compounds and an internal standard were calculated and transformed to nanomolar concentrations determined based on a four-point calibration comprising 1.2% to 150% of the incubation concentration. Calibration standards were prepared using heat-inactivated (60 °C for at least 15 min) hepatocytes as a biomatrix and processed in duplicate, as described for the test samples.
For data analysis, the concentration data were plotted against the incubation time, the first-order kel was determined by non-linear regression using Biorails version 5.10.22/Morphit version 8.0 (The Edge Software Consultancy, Guildford, UK), and CLint values (expressed in µL/min/10^6 cells) were obtained by normalizing kel with the hepatocyte concentration.

[4] = Unbound fraction in the hepatocyte incubation (fu,hep) by rapid equilibrium dialysis; type: in vitro ADME, mouse; conditions: for fu,hep: experimental unbound fraction in hepatocyte incubation
Description: as §1, §2, §3, §4, §5

[5] = microsomes, experimental fu,mic
[6] = recovery in equilibrium dialysis

Row | SMILES | Fold obs. / pred. (mic.) CL,b,u - Kilford ([1]; microsomes) | in vitro (mic.) pred. CLint,b - Kilford ([1]; microsomes) | in vitro (mic.) pred. CLint,b,u - Kilford ([1]; microsomes) | Fold obs. / pred. (mic.) CL,b,u - exp. fu,mic [1, 5] | in vitro (mic.) pred. CLint,b - exp. fu,mic [1, 5] | in vitro (mic.) pred. CLint,b,u - exp. fu,mic [1, 5] | fu,mic [2] | fu,mic recovery ([2]; recovery in fu,mic dialysis) | Hepatocyte CLint [3] | fu,hep [4] | fu,hep recovery ([4]; recovery in fu,hep dialysis) | in vitro (mic.) pred. CLint,b - Kilford ([1]; from microsomes) | in vitro (mic.) pred. CLint,b,u - Kilford ([1]; from microsomes) | in vitro (mic.) pred. CLint,b - exp. fu,mic ([1]; from microsomes, exp. fu,mic) | in vitro (mic.) pred. CLint,b,u - exp. fu,mic ([1]; from microsomes, exp. fu,mic) | Fold obs. / pred. (mic.) CL,b,u - exp. fu,mic ([1]; microsomes, exp. fu,mic) | fu,mic recovery [2, 6] | fu,hep recovery [4, 6]
1 | COc1cccc(OCCCN)c1-c1cc(Nc2cnc(C#N)cn2)n[nH]1 [MSC020] | 1.3 | 8.898 L/h/kg | 46.345 L/h/kg | 1.1 | 12.892 L/h/kg | 67.1472 L/h/kg | 58.66% | 61% | 70.5 µl/min/1e6 cells | 91.30% | 50% | – | – | – | – | – | – | –
2 | O=C(O)c1cc(-c2ccc(F)cc2F)ccc1O [MSC001] | 0.5 | 0.341 L/h/kg | 20.041 L/h/kg | 0.5 | 0.358 L/h/kg | 20.96 L/h/kg | 91.70% | 98% | 11.9 µl/min/1e6 cells | 97.45% | 232% | – | – | – | – | – | – | –
3 | N#Cc1c[nH]c2c(C(=O)N3CCN(CCc4ccc(F)cc4)CC3)cccc12 [MSC213] | 1.7 | – | – | – | – | – | 35.01% | – | 222.1 µl/min/1e6 cells | 87.81% | – | 3.563 L/h/kg | 76.7166 L/h/kg | 7.674 L/h/kg | 165.243 L/h/kg | 1.1 | 87% | 136%
4 | CNC(=O)c1cc(Oc2ccc3nc(N[C@@H]4CCCC[C@H]4O)sc3c2)ccn1 [MSC003] | 0.528 | 0.8232 L/h/kg | 10.772 L/h/kg | 0.5 | 0.8544 L/h/kg | 11.181 L/h/kg | 87.21% | 98% | 16.5 µl/min/1e6 cells | 100.00% | 80% | – | – | – | – | – | – | –
